Read-outs that look alike come from different tables or passages of the source. One block for each compound: values may come before it.
Tests used:
Format in all cases: in vivo
[1] = system: Abutilon theophrasti (ABUTH); experiment: Post-emergence herbicidal action, greenhouse pot test; conditions: Abutilon theophrasti, 504 h; for pest or weed control at 1.25 g/ha: read-out: Post-emergence action at 1.25 g/ha against ABUTH in %; for pest or weed control at 5 g/ha: read-out: Post-emergence action at 5 g/ha against ABUTH in %; for pest or weed control at 20 g/ha: read-out: Post-emergence action at 20 g/ha against ABUTH in %
Method in brief: (§1)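 Activity was scored by eye about 3 weeks after treatment against untreated plants, where 100% means dead plants and 0% means no difference. Plants at the one-leaf stage received a foliar spray of WP or EC formulations in water plus 0.5% additive (600 l/ha, up to 20 g/ha). Plants were grown in sandy loam pots in a greenhouse for 2–3 weeks before spraying.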

[2] = system: Amaranthus retroflexus (AMARE); experiment: as above; conditions: Amaranthus retroflexus, 504 h; for pest or weed control at 1.25 g/ha: read-out: Post-emergence action at 1.25 g/ha against AMARE in %; for pest or weed control at 5 g/ha: read-out: Post-emergence action at 5 g/ha against AMARE in %; for pest or weed control at 20 g/ha: read-out: Post-emergence action at 20 g/ha against AMARE in %
Method in brief: as §1

Avena fatua (AVEFA) = experiment: as above; conditions: Avena fatua, 504 h, read-out: Post-emergence action at 20 g/ha against AVEFA in %
Method in brief: as §1

Hordeum murinum (HORMU) = experiment: as above; conditions: 20 g/ha, rated visually after about 3 weeks vs untreated controls, 100% = plants have died
Method in brief: as §1

[3] = system: Pharbitis purpurea (PHBPU); experiment: as above; conditions: Ipomoea purpurea, 504 h, read-out: Post-emergence action against PHBPU in %
Method in brief: as §1

[4] = system: Polygonum convolvulus (POLCO); experiment: as above; conditions: Fallopia convolvulus, 504 h, read-out: Post-emergence action against POLCO in %
Method in brief: as §1

Stellaria media (STEME) = experiment: as above
Method in brief: as §1

Veronica persica (VERPE) = experiment: as above; conditions: Veronica persica, 504 h, read-out: Post-emergence action against VERPE
Method in brief: as §1

Viola tricolor (VIOTR) = experiment: as above; conditions: Viola tricolor, 504 h, read-out: Post-emergence action against VIOTR
Method in brief: as §1

[5] = system: Alopecurus myosuroides (ALOMY); experiment: Post-emergence herbicidal action, greenhouse pot test (also comparative test C); conditions: for pest or weed control at 20 g/ha: read-out: Post-emergence action at 20 g/ha against ALOMY in %
Method in brief: (§2)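 Visual rating against untreated controls, about 3 weeks after spraying, from 0% (like control) to 100% (plants dead). Weeds were treated at the one-leaf stage, 2–3 weeks after sowing in sandy loam, with aqueous WP/EC spray containing 0.5% additive at 600 l/ha. Doses were ≤20 g/ha, or ≤5 g/ha for comparative test C.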

[6] = system: Echinochloa crus-galli (ECHCG); experiment: as above
Method in brief: as §2

[7] = system: Matricaria inodora (MATIN); experiment: as above; conditions: Tripleurospermum inodorum, 504 h, read-out: Post-emergence action against MATIN in %
Method in brief: as §2

Setaria viridis (SETVI) = experiment: as above; conditions: Setaria viridis, 504 h; for pest or weed control at 20 g/ha: read-out: Post-emergence action against SETVI; for pest or weed control at 1.25 g/ha / pest or weed control at 5 g/ha: read-out: Post-emergence action against SETVI in %
Method in brief: as §2

Glycine max (GLXMA) = experiment: Post-emergence crop plant compatibility, greenhouse pot test
Method in brief: (§3)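 Visual % damage vs untreated controls, scored ~3 weeks post-spray (100% = dead, 0% = as control). Plants in sandy loam, greenhouse; treated at one-leaf stage, 2–3 wk after sowing. WP/EC, aqueous, 0.5% additive, 600 l/ha. Suffixes a/b/c = different dosages.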

[8] = system: Triticum aestivum (TRZAS); experiment: as above; conditions: vs untreated controls
Method in brief: as §3

Zea mays (ZEAMX) = experiment: as above; conditions: 1.25 g/ha, vs untreated controls
Method in brief: as §3

Oryza sativa (ORYSA) = experiment: Post-emergence crop plant compatibility, greenhouse pot test (also comparative test C); conditions: vs untreated controls
Method in brief: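 Visual damage versus untreated plants (0% = like control, 100% = plants died) was scored about 3 weeks after a post-emergence spray in greenhouse pots. Treatment: one-leaf stage, WP or EC in water at 600 l/ha with 0.5% additive; a/b/c mark different dosages on the same crop.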

Lolium rigidum (LOLRI) = experiment: Post-emergence herbicidal action, greenhouse pot test
Method in brief: as §1

Brassica napus (BRSNW) = experiment: Post-emergence crop plant compatibility, greenhouse pot test; conditions: for Post-emergence action against BRSNW (crop plant compatibility): vs untreated controls
Method in brief: as §3

[9] = 1.25 g/ha, rated visually after about 3 weeks vs untreated controls, 100% = plants have died
[10] = 5 g/ha, rated visually after about 3 weeks vs untreated controls, 100% = plants have died
[11] = 20 g/ha, rated visually after about 3 weeks vs untreated controls, 100% = plants have died

SMILES: COCCOC(=O)COc1ccccc1Sc1cc(-n2c(=O)cc(C(F)(F)F)n(C)c2=O)c(F)cc1Cl [I.1-1, 2-Methoxyethyl [2-({2-chloro-4-fluoro-5-[3-methyl-2,6-dioxo-4-(trifluoromethyl)-3,6-dihydropyrimidin-1(2H)-yl]phenyl}sulfanyl)phenoxy]acetate]
- pest or weed control at 1.25 g/ha [1]: 100%
- pest or weed control at 5 g/ha [1]: 100%
- pest or weed control at 20 g/ha [1]: 100%
- pest or weed control at 1.25 g/ha [2]: 90%
- pest or weed control at 5 g/ha [2]: 100%
- pest or weed control at 20 g/ha [2]: 100%
- pest or weed control at 20 g/ha (Avena fatua (AVEFA)): 80%
- Post-emergence action at 20 g/ha against HORMU in % (Hordeum murinum (HORMU)): 100%
- pest or weed control at 1.25 g/ha [3]: 100%
- pest or weed control at 5 g/ha [3]: 100%
- pest or weed control at 20 g/ha [3]: 100%
- pest or weed control at 5 g/ha [4]: 100%
- pest or weed control at 20 g/ha [4]: 100%
- Post-emergence action against STEME (Stellaria media (STEME); 1.25 g/ha): 80%
- Post-emergence action against STEME (Stellaria media (STEME); 5 g/ha): 100%
- Post-emergence action against STEME (Stellaria media (STEME); 20 g/ha): 100%
- pest or weed control at 1.25 g/ha (Veronica persica (VERPE)): 80%
- pest or weed control at 5 g/ha (Veronica persica (VERPE)): 100%
- pest or weed control at 20 g/ha (Veronica persica (VERPE)): 100%
- pest or weed control at 1.25 g/ha (Viola tricolor (VIOTR)): 100%
- pest or weed control at 5 g/ha (Viola tricolor (VIOTR)): 100%
- pest or weed control at 20 g/ha (Viola tricolor (VIOTR)): 100%
- pest or weed control at 20 g/ha ([5]; Alopecurus myosuroides, 504 h): 80%
- pest or weed control at 20 g/ha ([6]; Echinochloa crus-galli, 504 h, read-out: Post-emergence action against ECHCG in %): 80%
- pest or weed control at 5 g/ha [7]: 100%
- pest or weed control at 20 g/ha [7]: 100%
- pest or weed control at 20 g/ha (Setaria viridis (SETVI)): 100%
- pest or weed control at 1.25 g/ha (Setaria viridis (SETVI)): 100%
- pest or weed control at 5 g/ha (Setaria viridis (SETVI)): 100%
- Post-emergence action against GLXMA in % (Glycine max (GLXMA); 1.25 g/ha): 0%
- Post-emergence action against GLXMA in % (Glycine max (GLXMA); 5 g/ha): 20%
- Post-emergence action against TRZAS (crop plant compatibility) ([8]; 1.25 g/ha): 20%
- Post-emergence action against ZEAMX (crop plant compatibility) (Zea mays (ZEAMX)): 20%
- Post-emergence action against ORYSA (crop plant compatibility) (Oryza sativa (ORYSA); 1.25 g/ha): 10%
- Post-emergence action against ORYSA (crop plant compatibility) (Oryza sativa (ORYSA); 5 g/ha): 10%

- Post-emergence action against BRSNW (crop plant compatibility) (Brassica napus (BRSNW); 1.25 g/ha): 20%
- Post-emergence action against BRSNW (crop plant compatibility) (Brassica napus (BRSNW); 20 g/ha): 20%
- Post-emergence action against TRZAS (crop plant compatibility) ([8]; 1.25 g/ha): 20%
- Post-emergence action against TRZAS (crop plant compatibility) ([8]; 5 g/ha): 20%
- Post-emergence action against ORYSA (crop plant compatibility) (Oryza sativa (ORYSA); 1.25 g/ha): 0%
SMILES: Cn1c(C(F)(F)F)cc(=O)n(-c2cc(Oc3ccccc3OCC(=O)OCc3ccccn3)c(Cl)cc2F)c1=O [I.7-276, Pyridin-2-ylmethyl (2-{2-chloro-4-fluoro-5-[3-methyl-2,6-dioxo-4-(trifluoromethyl)-3,6-dihydropyrimidin-1(2H)-yl]phenoxy}phenoxy)acetate]
- pest or weed control at 1.25 g/ha [1, 9]: 100%
- pest or weed control at 5 g/ha [1, 10]: 100%
- pest or weed control at 20 g/ha [1, 11]: 100%
- pest or weed control at 1.25 g/ha [2, 9]: 100%
- pest or weed control at 5 g/ha [2, 10]: 100%
- pest or weed control at 20 g/ha [2, 11]: 100%
- pest or weed control at 20 g/ha (Avena fatua (AVEFA); [11]): 90%
- Post-emergence action at 5 g/ha against LOLRI in % (Lolium rigidum (LOLRI); [10]): 80%
- pest or weed control at 20 g/ha (Lolium rigidum (LOLRI); Lolium rigidum, 504 h, dosage 20 g/ha, read-out: Post-emergence action against LOLRI in %): 100%
- pest or weed control at 1.25 g/ha ([3]; dosage 1.25 g/ha): 100%
- pest or weed control at 5 g/ha ([3]; dosage 5 g/ha): 100%
- pest or weed control at 20 g/ha ([3]; dosage 20 g/ha): 100%
- pest or weed control at 1.25 g/ha (Veronica persica (VERPE); 1.25 g/ha): 100%
- pest or weed control at 5 g/ha (Veronica persica (VERPE); 5 g/ha): 100%
- pest or weed control at 20 g/ha (Veronica persica (VERPE); 20 g/ha): 100%
- pest or weed control at 1.25 g/ha (Viola tricolor (VIOTR); 1.25 g/ha): 100%
- pest or weed control at 5 g/ha (Viola tricolor (VIOTR); 5 g/ha): 100%
- pest or weed control at 20 g/ha (Viola tricolor (VIOTR); 20 g/ha): 100%
- Post-emergence action at 1.25 g/ha against ALOMY in % [5, 9]: 90%
- pest or weed control at 5 g/ha ([5]; Alopecurus myosuroides, 504 h, 5 g/ha, rated visually after about 3 weeks vs untreated controls, 100% = plants have died, read-out: Post-emergence action at 5 g/ha against ALOMY in %): 100%
- pest or weed control at 20 g/ha ([5]; Alopecurus myosuroides, 504 h, 20 g/ha, rated visually after about 3 weeks vs untreated controls, 100% = plants have died): 100%
- Post-emergence action at 1.25 g/ha against ECHCG in % [6, 9]: 90%
- pest or weed control at 5 g/ha ([6]; Echinochloa crus-galli, 504 h, dosage 5 g/ha, read-out: Post-emergence action against ECHCG in %): 100%
- pest or weed control at 20 g/ha ([6]; Echinochloa crus-galli, 504 h, dosage 20 g/ha, read-out: Post-emergence action against ECHCG in %): 100%
- pest or weed control at 1.25 g/ha ([7]; dosage 1.25 g/ha): 100%
- pest or weed control at 5 g/ha ([7]; dosage 5 g/ha): 100%
- pest or weed control at 20 g/ha ([7]; dosage 20 g/ha): 100%
- pest or weed control at 20 g/ha (Setaria viridis (SETVI); 20 g/ha): 100%
- pest or weed control at 1.25 g/ha (Setaria viridis (SETVI); dosage 1.25 g/ha): 100%
- pest or weed control at 5 g/ha (Setaria viridis (SETVI); dosage 5 g/ha): 100%
- Post-emergence action at 5 g/ha against BRSNW in % (Brassica napus (BRSNW); 5 g/ha, crop plant compatibility, observed effects on crop plant in comparison to untreated controls): 20%
